# Measured values from PMC11773056, “The zymogenic form of SARS-CoV-2 main protease: A discrete target for drug discovery” (The Journal of Biological Chemistry, 2024).
# Target: T1, M^pro expressed from mCherry-repM^pro-eGFP (total protease, all forms) (Severe acute respiratory syndrome coronavirus 2, UniProt P0DTD1)
# T1 construct: gene rep
# Assay: cell-based
# Settings: read-out: HEK293T cells, reporter mCherry-repM^pro-eGFP / Total inhibition EC50
smiles,measurement,value
"O=C(Oc1cncc(C(F)(F)F)c1)c1cccc2[nH]ccc12 [compound 1, Compound 1]",EC50,12.1 ± 2.8 µM
